Measurements published in ChEMBL document CHEMBL4418498, “Halogenated benzotropolones as atg4b inhibitors” (2018).

Assays:
[1] = Metabolic stability in mouse liver microsomes assessed as parent compound recovery after 30 mins in presence of NADPH regenerating system by LC-MS/MS analysis; format: ADME, Microsome; conditions: read-out: Drug recovery
[2] = target: T1, Cysteine protease ATG4B (Homo sapiens) (UniProt Q9Y4P1); experiment: Inhibition of Atg4B in human Jurkat T-cells assessed as reduction in everolimus-induced autophagy at […] incubated for 16 hrs by CYTO-ID-based phenotypical screening assay relative to control everolimus alone (reference value: 1 No unit); format: cell-based
T1 sequence (whole entry): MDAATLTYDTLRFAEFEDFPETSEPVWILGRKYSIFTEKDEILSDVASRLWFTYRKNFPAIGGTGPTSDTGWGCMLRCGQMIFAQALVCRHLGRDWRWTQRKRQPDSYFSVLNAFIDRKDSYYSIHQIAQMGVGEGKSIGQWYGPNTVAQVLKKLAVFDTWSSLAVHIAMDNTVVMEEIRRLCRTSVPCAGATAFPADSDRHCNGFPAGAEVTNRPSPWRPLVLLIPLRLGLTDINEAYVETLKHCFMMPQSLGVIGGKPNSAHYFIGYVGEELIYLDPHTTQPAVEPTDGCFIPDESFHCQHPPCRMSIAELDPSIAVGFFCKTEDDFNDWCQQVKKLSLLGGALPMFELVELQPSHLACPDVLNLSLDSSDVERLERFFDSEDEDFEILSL

SMILES: O=C(O)c1cc(O)c(=O)c2c(O)c(O)c(Br)cc2c1
- remaining at 0.5 h [1]: 100%

SMILES: Cn1cnc(N)c2ncnc1-2
- Ratio [2]: 0.57
